These results are taken from patent US5192668A, “Synthesis of protease inhibitor” (Merck & Co., Inc., priority 1992, dated 1993).

The experiment addresses T1, HIV protease (Human immunodeficiency virus type 1 group M subtype B, UniProt P12497).
T1 construct: HIV protease expressed in Escherichia coli; made in house; host or cells: Escherichia coli
Put plainly: Assay for Inhibition of Recombinant HIV Protease (APRIN 2.1). It is filed as biochemical. The following applies: Conc. 1 ng/ml; read-out: APRIN 2.1 Act. (% Inhib.). How it is done:
Assay for Inhibition of Recombinant HIV Protease (APRIN 2.1)
Inhibition studies were performed on the reaction of the HIV protease expressed in Escherichia coli with a tritiated peptide substrate, [^3 H]-acetyl-Val-Ser-Gln-Asn-(beta-napthyl-Ala)-Pro-Ile-Val-Gln-Gly-Arg -Arg-NH2 (MW 1800). The two arginine residues at the carboxyl terminus give this peptide an overall positive charge at acidic pH and enable it to bind to the H^+ form of DOWEX AG-50W-X8 resin and similar resins.
Aliquots of 25 μl containing 6.0-8.0 nM HIV protease in assay buffer (100 mM sodium acetate, pH 5.5 and 0.1% BSA) are placed in assay tubes. The reaction is initiated by addition of 25 μl aliquots of 4.2 μM tritiated peptide substrate in 100 mM sodium acetate, pH 5.5. After incubation for 60 min at 37° C., the reaction is stopped with 100 μl of 5% H3 PO4, then analysed by application of column chromatography.

In the case of `CC(C)(C)OC(=O)N[C@@H](Cc1ccccc1)[C@@H](O)C[C@@H](Cc1ccc(OCC(=O)O)cc1)C(=O)N[C@H]1c2ccccc2C[C@H]1O` [L-694,746], the inhibition at 0.001 µg/mL is 88%.
